Laboratory results: article PMC3424241, “The Octadecaneuropeptide ODN Protects Astrocytes against Hydrogen Peroxide-Induced Apoptosis via a PKA/MAPK-Dependent Mechanism” (PLoS ONE, 2012)

Experiments:
cultured rat astrocytes [1] = test: Cell survival after H2O2, FDA fluorescence; format: cell-based
Description: Secondary cultures of rat cortical astrocytes were prepared as previously described [64]with minor modifications. Briefly, cerebral hemispheres from newborn Wistar rats were collected in DMEM/F12 (2∶1; v/v) culture medium supplemented with 2 mM L-glutamine, 1‰ insulin, 5 mM HEPES, 0.4% glucose and 1% of the antibiotic-antimycotic solution. The tissues were dissociated mechanically with a syringe equipped with a 1-mm gauge needle, and filtered through a 100-µm sieve (Falcon, Franklin Lakes, NJ, USA). […] When cultures were confluent, astrocytes were isolated by shaking overnight the flasks on an orbital agitator. Adhesive cells were detached by trypsination and preplated for 5 min to discard contaminating microglial cells. Then, the non-adhering astrocytes were harvested and plated on 35-mm hydrophilic surface Petri dishes at a density of 3×10^5 cells/ml. […] The cells were incubated at 37°C in a humid atmosphere (5% CO2). […] All experiments were performed on 5- to 7-day-old secondary cultures.
(§1) Cultured cells were incubated at 37°C with fresh serum-free culture medium in the absence or presence of H2O2 and/or ODN for 1 h. Cells were then incubated for 10 min at 37°C with 0.3 µg/ml calcein-AM (producing green fluorescence in living cells), rinsed twice with culture medium without probe and examined on an inverted microscope (Leica, Heidelberg, Germany) equipped with a double pass filter.
For quantification of surviving astrocytes, cells were incubated for 8 min with 15 µg/ml FDA-AM, rinsed twice with phosphate-buffered saline (PBS) and lysed with a Tris/HCl solution containing 1% sodium dodecyl sulfate (SDS). Fluorescence was measured with excitation at 485 nm and emission at 538 nm, using a microplate reader (Bio-Tek FLx 800).

cultured rat astrocytes [2] = test: Living-cell staining and morphology with calcein-AM after H2O2; format: cell-based; settings: ODN 0.1 nM pretreatment 10 min, then 1 h 300 µM H2O2; calcein-AM staining
Description: (§2) Secondary cultures of rat cortical astrocytes were prepared as previously described [64]with minor modifications. Briefly, cerebral hemispheres from newborn Wistar rats were collected in DMEM/F12 (2∶1; v/v) culture medium supplemented with 2 mM L-glutamine, 1‰ insulin, 5 mM HEPES, 0.4% glucose and 1% of the antibiotic-antimycotic solution. The tissues were dissociated mechanically with a syringe equipped with a 1-mm gauge needle, and filtered through a 100-µm sieve (Falcon, Franklin Lakes, NJ, USA). Dissociated cells were resuspended in culture medium supplemented with 10% FBS, plated in 175-cm^2 flasks (Greiner Bio-one GmbH, Frickenhausen, Germany) and incubated at 37°C in a 5% CO2/[…] atmosphere. When cultures were confluent, astrocytes were isolated by shaking overnight the flasks on an orbital agitator. Adhesive cells were detached by trypsination and preplated for 5 min to discard contaminating microglial cells. […]
as §1

[3] = tested on: cAMP formation in astroglial cells (adenylyl cyclase); test: cAMP production, radioimmunoassay; format: cell-based, rat; settings: ODN 10 pM; 0.1 mM IBMX, 10 min incubation; p<0.001
Description: as §2, with “cells. Then, the non-adhering astrocytes were harvested and plated on 35-mm hydrophilic surface Petri dishes at a density of 3×10^5 cells/ml.” for “cells.”
Cultured cells were pre-incubated for 30 min in serum-free medium containing 0.1 mM IBMX to inhibit phosphodiesterases, and then incubated in the same solution, in the presence or absence of test substances. […] The concentration of cAMP was measured by using a cAMP RIA kit. […]

ERK1 and ERK2 = test: ERK phosphorylation, Western blot; format: cell-based, rat
Description: Secondary cultures of rat cortical astrocytes were prepared as previously described [64]with minor modifications. Briefly, cerebral hemispheres from newborn Wistar rats were collected in DMEM/F12 (2∶1; v/v) culture medium supplemented with 2 mM L-glutamine, 1‰ insulin, 5 mM HEPES, 0.4% glucose and 1% of the antibiotic-antimycotic solution. The tissues were dissociated mechanically with a syringe equipped with a 1-mm gauge needle, and filtered through a 100-µm sieve (Falcon, Franklin Lakes, NJ, USA). Dissociated cells were resuspended in culture medium supplemented with 10% FBS, plated in 175-cm^2 flasks (Greiner Bio-one GmbH, Frickenhausen, Germany) and incubated at 37°C in a 5% CO2/[…] atmosphere. When cultures were confluent, astrocytes were isolated by shaking overnight the flasks on an orbital agitator. Adhesive cells were detached by trypsination and preplated for 5 min to discard contaminating microglial cells. Then, the non-adhering astrocytes were harvested and plated on 35-mm hydrophilic surface Petri dishes at a density of 3×10^5 cells/ml. For measurement of cell survival, caspase-3 activity and mitochondrial activity, cells were plated in hydrophilic surface 24-well plates at a density of 8×10^4 cells/ml. The cells were incubated at 37°C in a humid atmosphere (5% CO2). After 5 days (DIV5), more than 99% of the cells were labeled with antibodies against glial fibrillary acidic protein [65]. All experiments were performed on 5- to 7-day-old secondary cultures.
Cultured cells were incubated at 37°C for 1 h with fresh serum-free medium in the absence or presence of test substances. Total proteins were extracted with lysis buffer containing 1% Triton X-100, 50 mM Tris/HCl and 10 mM EDTA. After centrifugation (20,000 g, 4°C, 15 min), the proteins contained in the supernatant were precipitated by addition of ice-cold 10% TCA. The extract was centrifuged (15,000 g, 4°C, 15 min) and washed three times with alcohol/ether. The pellet was denatured (100°C, 5 min) in 50 mM Tris/HCl (pH 7.5) containing 20% glycerol, 0.7 M 2-mercaptoethanol, 0.004% bromophenol blue and 3% SDS, and then migrated on a 10% SDS-polyacrylamide gel electrophoresis (PAGE). After separation, proteins were electrically transferred onto nitrocellulose membrane (Amersham, Les Ulis, France). […] Signal was quantified using an image analysis system (Biocom, Les Ulis, France).

[4] = tested on: mitochondria of cultured astrocytes; test: Mitochondrial membrane potential, JC-1 probe; format: cell-based, rat; settings: ODN 0.1 nM, 10 min pretreatment, then 1 h 300 µM H2O2
Description: as §2, with “cells. Then, the non-adhering astrocytes were harvested and plated on 35-mm hydrophilic surface Petri dishes at a density of 3×10^5 cells/ml.” for “cells.”
Cells seeded into 24-well plates were subjected to various treatments, incubated in the presence of the JC-1 probe (3 µl/ml) at 37°C for 15 min and then washed twice with PBS. Mitochondrial integrity was assessed with the JC-1 probe. […]

cultured rat astrocytes [5] = settings: ODN 0.1 nM, 300 µM H2O2; cited from earlier work
Description: In order to determine the receptor involved in the protective effect of ODN, we have first examined the dose- and the time-course effect of the peptide on detrimental action of H2O2. The protective action of ODN was concentration-dependent for doses ranging from 1 fM to 0.1 nM (Figure 1A). […] The protectiv ...

caspase-3 = tested on: caspase-3; design: method as in PMID 21599667; settings: subnanomolar concentrations of ODN, cultured astrocytes; cited from earlier work

ODN: octadecaneuropeptide, endozepine derived from diazepam-binding inhibitor; endogenous ligand of central-type benzodiazepine and metabotropic receptors; synthesized by Fmoc procedure (QATVGDVNTDRPGLLDLK; Octadecaneuropeptide; UniProt P11030 34-51, looked up)
time-course of protection against H2O2-induced cell injury (cultured rat astrocytes [1]; ODN 0.1 nM, 300 µM H2O2, FDA fluorescence): totally blocked H2O2-induced cell injury during the first 60 min
duration of the protective effect with fresh doses of peptide (cultured rat astrocytes [1]; ODN 0.1 nM, refills of 0.1 nM after 30, 60, 90, 120 and 150 min, 300 µM H2O2): ≥ 150 min
maximum effect (survival) (cultured rat astrocytes [1]; ODN 0.1 nM, 10 min pre-incubation, 1 h 300 µM H2O2, FDA fluorescence): ~95%
time after onset of peptide administration at which the protective action vanished (cultured rat astrocytes [1]; single dose of ODN 0.1 nM, 300 µM H2O2): 180 min
delay of H2O2-induced cell death (cultured rat astrocytes [1]; time-course, ODN 0.1 nM, 300 µM H2O2): approximately 1 h
effect on H2O2-induced morphological changes and loss of calcein labeling (cultured rat astrocytes [2]): totally prevented the deleterious effects of H2O2
maximum stimulation of cAMP formation [3]: 179 % over control
ERK phosphorylation (ERK1 and ERK2; ODN 0.1 nM, after 60 min of treatment, percentages of control): 206%
time to detectable increase of ERK phosphorylation (ERK1 and ERK2; ODN 0.1 nM, time-course): ≤ 20 min
effect on ERK phosphorylation (ERK1 and ERK2; graded ODN 1 fM to 0.1 nM, 1 h, Western blot): concentration-related stimulation of ERK phosphorylation
effect on H2O2-induced alteration of the mitochondrial membrane potential [4]: suppressed this deleterious effect of H2O2 on the mitochondrial membrane potential
effect on H2O2-induced astrocyte cell death (cultured rat astrocytes [5]): able to reverse the effect of 300 µM H2O2-induced astrocyte cell death
effect on H2O2-induced caspase-3 activation (caspase-3): inhibit H2O2-induced caspase-3 activation
